Source: publication doi:10.1101/2021.10.07.463234v2 (biorxiv, 2021)
Where a name gives a salt, the structure may show the parent alone.

Biological target: SARS-CoV-2 Mac1 (Severe acute respiratory syndrome coronavirus 2, UniProt P0DTD1)
Assay: biochemical
Details: 100 µM; inhibitor

| SMILES | %inhibition [%] |
| --- | --- |
| CC1(C)S[C@@H]2[C@H](NC(=O)[C@H](N)c3ccc(O)cc3)C(=O)N2[C@H]1C(=O)O [Amoxicillin Sodium] | 14.1 |
| C=C1[C@H](CO)[C@@H](O)C[C@@H]1n1cnc2c(=O)[nH]c(N)nc21 [Entecavir Hydrate] | 11.65 |
| CC(C(=O)O)c1ccc(CC2CCCC2=O)cc1 (centres unmarked) [Loxoprofen Sodium] | 0 |
| CC(C)N(CCC(C(N)=O)(c1ccccc1)c1ccccn1)C(C)C (centres unmarked) [Disopyramide] | 8.31 |
| CS(=O)(=O)CCNCc1ccc(-c2ccc3ncnc(Nc4ccc(OCc5cccc(F)c5)c(Cl)c4)c3c2)o1 [Lapatinib (GW-572016) Ditosylate] | 16.67 |
| Cc1cn([C@H]2C[C@H](N=[N+]=[N-])[C@@H](CO)O2)c(=O)[nH]c1=O [Zidovudine] | 8.703 |
| O=C(O)Cc1ccccc1Nc1c(Cl)cccc1Cl [Diclofenac Sodium] | 15.35 |
| CCCC(CCC)C(=O)O [Divalproex Sodium] | 5.124 |

Same assay, conditions: read-out: %inhibition

| SMILES | inhibition at 100 µM [%] |
| --- | --- |
| O=C(O)c1ccc(NC(=O)[C@H](Cc2ccc(O)cc2)NC(=O)c2ccccc2)cc1 [Bentiromide] | 3.94 |
| Nc1ccc(/N=N/c2ccccc2)c(N)n1 [Phenazopyridine HCl] | 17 |
| CN1CC(O)C2=C/C(=N/NC(N)=O)C(=O)C=C21 (centres unmarked) [Carbazochrome] | 10.9 |
| C[C@H](CCC(=O)O)[C@H]1CC[C@H]2[C@@H]3[C@H](O)C[C@@H]4C[C@H](O)CC[C@]4(C)[C@H]3CC[C@]12C [Chenodeoxycholic Acid] | 0 |
| NC(=O)c1cn(Cc2c(F)cccc2F)nn1 [Rufinamide] | 25.2 |
| CO[C@H]1O[C@@H]2O[C@@]3(C)CC[C@H]4[C@H](C)CC[C@@H]([C@H]1C)[C@@]24OO3 [Artemether] | 0 |
| C[C@]1(Cn2ccnn2)[C@H](C(=O)O)N2C(=O)C[C@H]2S1(=O)=O [Tazobactam] | 6.81 |
| CCCCC(=O)O[C@]1(C(=O)CO)[C@@H](C)C[C@H]2[C@@H]3CCC4=CC(=O)C=C[C@]4(C)[C@@]3(F)[C@@H](O)C[C@@]21C [Betamethasone Valerate] | 0 |
| O=[N+]([O-])c1ccc(O)c2ncccc12 [Nitroxoline] | 0 |
| Cc1ccc(N(CC2=NCCN2)c2cccc(O)c2)cc1 [Phentolamine Mesylate] | 0 |
| Oc1cccc(O)c1 [Resorcinol] | 0 |
| CCCNC(C)C(=O)Nc1ccccc1C (centres unmarked) [Prilocaine hydrochloride] | 0 |
| O=S(=O)(O)CCS [Mesna] | 24.6 |
| CC(C)c1cc(-c2n[nH]c(=O)n2-c2ccc3c(ccn3C)c2)c(O)cc1O [Ganetespib (STA-9090)] | 1.18 |
| CCN(CC)CCOC(=O)c1ccc(N)cc1 [Procaine] | 0 |
| Nc1ncn([C@H]2C[C@H](O)[C@@H](CO)O2)c(=O)n1 [Decitabine] | 0 |
| CC1=C(C(=O)O)N2C(=O)[C@@H](NC(=O)[C@H](N)c3ccc(O)cc3)[C@H]2SC1 [Cefadroxil hydrate] | 0 |
| COC(=O)N/N=C/c1c[n+]([O-])c2ccccc2[n+]1[O-] [Carbadox] | 6.86 |
| C[C@H](CSC(=O)c1ccccc1)C(=O)N1C[C@@H](Sc2ccccc2)C[C@H]1C(=O)O [Zofenopril calcium] | 10.7 |
| O=c1ccc2ccccc2o1 [Coumarin] | 5.25 |
| CO[C@H]1/C=C/O[C@@]2(C)Oc3c(C)c(O)c4c(O)c(cc(O)c4c3C2=O)NC(=O)/C(C)=C\C=C\[C@H](C)[C@H](O)[C@@H](C)[C@@H](O)[C@@H](C)[C@H](OC(C)=O)[C@@H]1C [Rifamycin sodium salt] | 10.7 |
| CCOC(=O)c1ccc(O)cc1 [Ethylparaben] | 2.11 |
| COC(=O)[C@]12CCC(C)(C)C[C@H]1[C@H]1C(=O)C=C3[C@@]4(C)C=C(C#N)C(=O)C(C)(C)[C@@H]4CC[C@@]3(C)[C@]1(C)CC2 [Bardoxolone Methyl] | 16.4 |
| O=c1oc2cc(O)ccc2s1 [Tioxolone] | 23.8 |
